The values below come from patent US20110152275A1, “AGENT FOR MAINTENANCE OF INDUCED REMISSION” (priority 2008, published 2011).

The test system of the test is rat adjuvant-induced arthritis model. The experiment in a line: Rat adjuvant-induced arthritis model. In kind it is in vivo. As to conditions: for overall effect on the arthritis (summary): summary of leg volume results, injected and non-injected legs; for infiltration of inflammatory cells into the joint after switching from MTX: MTX 0th to 10th day then Compound 1 1 mg/kg to 24th day. Here is the method:
There were intracutaneously injected 0.05 mL (0.6 mg/animal) each of a suspension of killed M. butyricum (12 mg/mL) in liquid paraffin into the back of the right hind legs of 8-week-old female rats of LEW/CrlCrlj line (available from Japan Charles-River Co., Ltd.) to thus induce the arthritis (the 0th day). Then 0.5 mL (per body weight of 100 g) each of an agent solution prepared using a 0.5% methyl cellulose (0.5% MC) was orally administered to each of the test animals. To the adjuvant-injected control animal group, there was administered only the 0.5% MC. Methotrexate (MTX, available from Sigma Company) (0.1 mg/kg) was administered to each test animal, once a day, during the term extending from the 0th day to the 10th day, every day. On or after the 11th day, (R)-2-amino-5-[2-chloro-4-(3-trifluoro methylphenylthio)phenyl]-2-methyl-1-pentanol hydrochloride (hereunder simply referred to as “Compound 1”) (1 mg/kg) was administered to the test animals, instead of methotrexate, once a day up to the 24th day every day. The evaluation of the arthritis was carried out according to the following procedures: The volumes of the right and left hind legs of each test animal were determined on the 0th, 8th, 11th, 14th, 18th, 21st and 25th days of the testing period using a volume-determining meter (MK-550 available from Muromachi Machine, Co., Ltd.) and then the rate of increase in the volume of the hind leg was determined for each of the right and left hind legs of each individual test animal. Then there was prepared a pathological specimen (stained with hematoxylin eosin) of a joint extending from the distal end of the shinbone to the tarsalia to evaluate the degree of the infiltration of inflammatory cells into the joint.
In case of the adjuvant-induced arthritis, acute inflammation, whose far advanced stage is observed on around 3rd day, is recognized on the adjuvant-injected leg and thereafter it is once degenerated. Then the systemic inflammation due to the systemic immunological abnormality is initiated on about 10th day and as a result, the onset of arthritis is observed on the non-injected leg in parallel with the injected leg.

Setting [1] is: adjuvant-injected leg, MTX 0.1 mg/kg orally once a day, 0th to 10th day, observed 8th to 11th day, FIG. 1.

`CN(Cc1cnc2nc(N)nc(N)c2n1)c1ccc(C(=O)N[C@@H](CCC(=O)O)C(=O)O)cc1` [MTX, Methotrexate]: the “overall effect on the arthritis (summary)” value is “could suppress the onset and progress of arthritis, but the arthritis was immediately advanced when stopping the administration thereof”. Moreover, the “symptom of arthritis after stopping administration” value (adjuvant-injected leg, MTX 0th to 10th day, discontinued on and after 11th day, FIG. 1) is recorded as “the symptom of arthritis was again advanced”. Under setting [1], the “increase in the volume of the leg” value is on record as “there was not observed any increase in the volume of the leg” and the “progress of the arthritis” value is given as “the progress of the arthritis was found to be inhibited”. Also, where the note is “injected leg, pathological specimen (hematoxylin eosin), MTX 0th to 10th day, observed 11th day, FIG. 3B”, the “infiltration of inflammatory cells into the joint” value was “any infiltration of inflammatory cells into the joint was suppressed”. Further, under “injected leg, pathological specimen, MTX 0th to 10th day then stopped, observed 25th day, FIG. 3D”, the “infiltration of inflammatory cells into the joint after stopping administration” value was “the conspicuous infiltration of inflammatory cells into the joint was recognized”. The “arthritis after stopping administration” value (non-injected leg, MTX 0th to 10th day, discontinued on and after 11th day, FIG. 2) is on record as “the arthritis was initiated when stopping the administration of MTX”. The “onset of the arthritis” value (non-injected leg, MTX 0.1 mg/kg orally 0th to 10th day, at the 11th day, FIG. 2) is “the onset of the arthritis in the non-injected leg was suppressed”.
As to `C[C@](N)(CO)CCCc1ccc(Sc2cccc(C(F)(F)F)c2)cc1Cl.Cl` [Compound 1, (R)-2-amino-5-[2-chloro-4-(3-trifluoromethylphenylthio)phenyl]-2-methyl-1-pentanol hydrochloride], the “overall effect on the arthritis (summary)” value is recorded as “could maintain the MTX-suppressed condition of the symptom of the arthritis”. The “progress of the arthritis after switching from MTX” value (adjuvant-injected leg, MTX 0.1 mg/kg 0th to 10th day, then Compound 1 1 mg/kg orally once a day 11th to 24th day, FIG. 1) was “the progress of the arthritis was inhibited”. For the same compound, the “infiltration of inflammatory cells into the joint after switching from MTX” value (injected leg, pathological specimen, observed 25th day, FIG. 3E) is “any infiltration of inflammatory cells into the joint was suppressed”. Further, the “onset of the arthritis after switching from MTX” value (non-injected leg, MTX 0.1 mg/kg 0th to 10th day, then Compound 1 1 mg/kg orally once a day 11th to 24th day, FIG. 2) is “the onset of the arthritis was suppressed”. In addition, for the setting “non-injected legs, pathological specimen”, the “infiltration of inflammatory cells into the joint after switching from MTX” value is “any infiltration of inflammatory cells into the joint was found to be suppressed”.
